Experiment: Stability of Compound 9 formulated for injection at room temperature
Assay type: physicochemical
Experimental: Radiolabeling chemistry was performed using automated synthesis of the following steps: (1) azeotropic drying of [^18F]-fluoride; (2) [^18F]-fluorination; (3) Boc deprotection; and (4) HPLC purification, followed by solid-phase formulation of the final product. The synthesis module was operated in the following sequences with numerical references to FIG. 1. Automated syntheses were performed on a Synthra (Hamburg, Germany) model RN Plus automated synthesizer module. Boc-deprotection was conducted with 0.4 mmol aqueous HCl at 95° C. added directly to the labeling reaction mixture without any prior purification. The two-step synthesis can be finished in approximately 80 min with the total radiochemical yield of 47% after decay correction. • 1. [^18F]-Fluoride, received from PETNET (Waltham, Mass.), was produced by the ^18O(p,n)^18F nuclear reaction and delivered to the reagent vial A (A) of the radiosynthesis module via syringe after mixing with tetrabutylammonium bicarbonate ([…], 75 mM in H2O, 250 μL) and acetonitrile (MeCN, 300 μL). • 2. Automated synthesis began with the addition the [^18F]-fluoride/TBAB mixture (A) and MeCN (B) to the reaction vessel 1 (RV1). • 3. […] The eluent was monitored by UV (λ=254 nm) and radiochemical detectors connected in series. • 8. […]

O=C(Cc1c[nH]c2ccc(O)cc12)NC(Cc1c[nH]c2ccc(O)cc12)C(=O)NCCOCCOCC[18F] (centres unmarked) [Compound 9]
Time stable on storage (0.5% (w/v) aqueous sodium-ascorbate in saline): at least 4 h
Stability on storage (1×PBS for injection): degraded over time

From patent publication US12570606B2, “Myeloperoxidase imaging agents” (The General Hospital Corporation, priority 2016, dated 2026)
